Experimental data: patent US10040790B2, “Bicyclic heterocycles as FGFR inhibitors” (Incyte Corporation, priority 2013, dated 2018)

Experiments:
Format in all cases: biochemical
FGFR1 = FGFR1 (Homo sapiens (Human), UniProt P11362); assay: FGFR Enzymatic Assay (FRET peptide phosphorylation), FGFR1; settings: ATP 210 μM, enzyme 0.02 nM
Experimental: (§1) The inhibitor potency of the exemplified compounds was measured in an enzyme assay that measures peptide phosphorylation using FRET measurements to detect product formation. Inhibitors were serially diluted in DMSO and a volume of 0.5 μL was transferred to the wells of a 384-well plate. For FGFR3, a 10 μL volume of FGFR3 enzyme (Millipore) diluted in assay buffer (50 mM HEPES, 10 mM MgCl2, 1 mM EGTA, 0.01% Tween-20, 5 mM DTT, pH 7.5) was added to the plate and pre-incubated for 5-10 minutes. Appropriate controls (enzyme blank and enzyme with no inhibitor) were included on the plate. The assay was initiated by the addition of a 10 μL solution containing biotinylated EQEDEPEGDYFEWLE peptide substrate (SEQ ID NO: 1) and ATP (final concentrations of 500 nM and 140 μM respectively) in assay buffer to the wells. The plate was incubated at 25° C. for 1 hr. The reactions were ended with the addition of 10 μL/well of quench solution (50 mM Tris, 150 mM NaCl, 0.5 mg/mL BSA, pH 7.8; 30 mM EDTA with Perkin Elmer Lance Reagents at 3.75 nM Eu-antibody PY20 and 180 nM APC-Streptavidin). The plate was allowed to equilibrate for ˜1 hr before scanning the wells on a PheraStar plate reader (BMG Labtech).
(§2) FGFR1 and FGFR2 were measured under equivalent conditions with the following changes in enzyme and ATP concentrations: FGFR1, 0.02 nM and 210 μM, respectively and FGFR2, 0.01 nM and 100 μM, respectively. The enzymes were purchased from Millipore or Invitrogen.
(§3) GraphPad prism3 was used to analyze the data. The IC50 values were derived by fitting the data to the equation for a sigmoidal dose-response with a variable slope. Y=Bottom+(Top−Bottom)/(1+10^((Log IC50−X)*HillSlope)) where X is the logarithm of concentration and Y is the response.

FGFR2 = FGFR2 (Homo sapiens (Human), UniProt P21802); assay: FGFR Enzymatic Assay (FRET peptide phosphorylation), FGFR2; settings: ATP 100 μM, enzyme 0.01 nM
FGFR2, sequence (P21802 22-821): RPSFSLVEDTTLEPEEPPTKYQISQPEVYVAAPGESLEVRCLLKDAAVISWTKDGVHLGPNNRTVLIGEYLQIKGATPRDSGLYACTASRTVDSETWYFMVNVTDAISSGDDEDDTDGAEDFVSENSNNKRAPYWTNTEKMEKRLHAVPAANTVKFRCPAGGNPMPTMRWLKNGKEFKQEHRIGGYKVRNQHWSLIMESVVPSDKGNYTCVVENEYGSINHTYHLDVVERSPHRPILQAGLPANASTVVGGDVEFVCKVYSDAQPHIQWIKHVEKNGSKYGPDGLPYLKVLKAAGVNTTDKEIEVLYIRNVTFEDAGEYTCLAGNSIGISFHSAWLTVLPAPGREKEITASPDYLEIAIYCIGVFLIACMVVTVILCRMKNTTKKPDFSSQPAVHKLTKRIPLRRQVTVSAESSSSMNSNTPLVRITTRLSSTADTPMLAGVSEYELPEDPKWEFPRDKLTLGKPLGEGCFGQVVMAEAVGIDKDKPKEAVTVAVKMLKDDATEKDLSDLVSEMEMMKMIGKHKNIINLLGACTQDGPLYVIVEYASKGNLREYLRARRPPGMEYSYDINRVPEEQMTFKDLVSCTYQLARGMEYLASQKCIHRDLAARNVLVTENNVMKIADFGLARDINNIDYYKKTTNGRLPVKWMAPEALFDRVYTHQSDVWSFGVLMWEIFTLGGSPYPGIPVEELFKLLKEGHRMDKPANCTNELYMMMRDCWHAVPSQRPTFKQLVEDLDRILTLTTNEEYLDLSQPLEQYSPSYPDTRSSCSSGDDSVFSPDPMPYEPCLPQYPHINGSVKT
Experimental: as §1, §2, §3

FGFR3 = FGFR3 (Homo sapiens (Human), UniProt P22607); assay: FGFR Enzymatic Assay (FRET peptide phosphorylation), FGFR3; settings: ATP 140 μM
FGFR3, sequence (P22607 23-806): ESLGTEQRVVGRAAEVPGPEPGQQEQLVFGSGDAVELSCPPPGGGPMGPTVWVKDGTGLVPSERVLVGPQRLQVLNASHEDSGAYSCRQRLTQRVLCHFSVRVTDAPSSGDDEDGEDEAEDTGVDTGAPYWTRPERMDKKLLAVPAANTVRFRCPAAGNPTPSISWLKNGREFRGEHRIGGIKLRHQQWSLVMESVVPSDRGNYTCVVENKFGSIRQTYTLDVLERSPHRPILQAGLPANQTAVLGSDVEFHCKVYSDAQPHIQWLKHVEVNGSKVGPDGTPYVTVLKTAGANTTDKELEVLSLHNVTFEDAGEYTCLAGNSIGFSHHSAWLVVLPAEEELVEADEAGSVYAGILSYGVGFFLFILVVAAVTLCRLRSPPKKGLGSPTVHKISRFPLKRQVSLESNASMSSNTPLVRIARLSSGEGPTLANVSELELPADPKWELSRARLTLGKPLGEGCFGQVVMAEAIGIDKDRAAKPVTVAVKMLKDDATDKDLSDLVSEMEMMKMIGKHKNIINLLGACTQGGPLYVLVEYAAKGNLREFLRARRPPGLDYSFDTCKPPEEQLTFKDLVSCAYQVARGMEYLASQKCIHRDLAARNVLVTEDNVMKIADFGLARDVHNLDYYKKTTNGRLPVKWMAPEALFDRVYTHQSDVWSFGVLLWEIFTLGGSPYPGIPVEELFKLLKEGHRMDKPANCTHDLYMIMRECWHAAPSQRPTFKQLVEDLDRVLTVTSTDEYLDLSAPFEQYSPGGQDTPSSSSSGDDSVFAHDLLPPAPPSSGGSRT
Experimental: as §1, §3

FGFR1, sequence (P11362 22-822): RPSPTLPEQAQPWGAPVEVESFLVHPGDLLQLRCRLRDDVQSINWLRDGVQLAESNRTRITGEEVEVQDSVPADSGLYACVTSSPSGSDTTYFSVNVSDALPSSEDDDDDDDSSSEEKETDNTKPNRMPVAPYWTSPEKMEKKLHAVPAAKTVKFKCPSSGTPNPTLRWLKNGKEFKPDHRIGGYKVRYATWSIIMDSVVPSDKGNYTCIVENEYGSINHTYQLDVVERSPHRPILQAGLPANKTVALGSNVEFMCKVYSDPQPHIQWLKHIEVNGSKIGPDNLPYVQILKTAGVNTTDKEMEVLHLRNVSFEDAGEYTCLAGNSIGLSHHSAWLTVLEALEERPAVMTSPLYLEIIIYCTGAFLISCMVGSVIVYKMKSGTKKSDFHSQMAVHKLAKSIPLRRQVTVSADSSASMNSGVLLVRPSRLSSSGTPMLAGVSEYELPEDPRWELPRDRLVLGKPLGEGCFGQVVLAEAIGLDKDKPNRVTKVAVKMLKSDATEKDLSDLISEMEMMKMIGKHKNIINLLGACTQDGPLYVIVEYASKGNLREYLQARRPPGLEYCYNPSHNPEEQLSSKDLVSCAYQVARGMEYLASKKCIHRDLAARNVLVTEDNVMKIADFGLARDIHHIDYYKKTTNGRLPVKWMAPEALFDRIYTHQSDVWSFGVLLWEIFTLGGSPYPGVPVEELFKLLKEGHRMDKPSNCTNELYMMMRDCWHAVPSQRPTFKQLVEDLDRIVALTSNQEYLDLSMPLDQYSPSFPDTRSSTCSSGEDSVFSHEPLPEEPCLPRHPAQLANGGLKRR

IC50 (FGFR1) [nM] | IC50 (FGFR2) [nM] | IC50 (FGFR3) [nM] | SMILES
< 100 | < 100 | < 100 | COc1cc(OC)c(F)c(N2Cc3cnc(N)c(C)c3N(Cc3cnn(C)c3)C2=O)c1F [Example 47, 7-amino-3-(2,6-difluoro-3,5-dimethoxyphenyl)-8-methyl-1-[(1-methyl-1H-pyrazol-4-yl)methyl]-3,4-dihydropyrido[4,3-d]pyrimidin-2(1H)-one]
< 100 | < 100 | < 100 | CCn1cc(-c2c(N)ncc3c2N(C)C(=O)N(c2c(F)c(OC)cc(OC)c2F)C3)cn1 [Example 9, 7-amino-3-(2,6-difluoro-3,5-dimethoxyphenyl)-1-methyl-8-(1-ethyl-1H-pyrazol-4-yl)-3,4-dihydropyrido[4,3-d]pyrimidin-2(1H)-one]
< 100 | < 100 | < 100 | COc1cc(OC)c(F)c(N2Cc3cnc(N)c(C)c3N(c3nnn(C)n3)C2=O)c1F [Example 46, 7-amino-3-(2,6-difluoro-3,5-dimethoxyphenyl)-8-methyl-1-(2-methyl-2H-tetrazol-5-yl)-3,4-dihydropyrido[4,3-d]pyrimidin-2(1H)-one]
< 100 | < 100 | < 100 | COc1cc(OC)c(F)c(N2Cc3cnc(NC4CCC4)cc3C3(CC3)C2=O)c1F [Example 42, 6′-(cyclobutylamino)-2′-(2,6-difluoro-3,5-dimethoxyphenyl)-1′H-spiro[cyclopropane-1,4′-[2,7]naphthyridin]-3′(2′H)-one]
< 100 | < 100 | < 100 | COc1cc(OC)c(F)c(N2Cc3cnc(N)c(C)c3N(c3ccccc3F)C2=O)c1F [Example 45, 7-amino-3-(2,6-difluoro-3,5-dimethoxyphenyl)-1-(2-fluorophenyl)-8-methyl-3,4-dihydropyrido[4,3-d]pyrimidin-2(1H)-one]
< 100 | < 100 | < 100 | COc1cc(OC)c(F)c(N2Cc3cnc(N)c(C#N)c3N(C3CCCC3)C2=O)c1F [Example 50, 7-amino-1-cyclopentyl-3-(2,6-difluoro-3,5-dimethoxyphenyl)-2-oxo-1,2,3,4-tetrahydropyrido[4,3-d]pyrimidine-8-carbonitrile]
< 100 | < 100 | < 100 | CNc1cc2c(cn1)CN(c1c(F)c(OC)cc(OC)c1F)C(=O)C21CC1 [Example 25, 2′-(2,6-difluoro-3,5-dimethoxyphenyl)-6′-(methylamino)-1′,2′-dihydro-3′H-spiro[cyclopropane-1,4′-[2,7]naphthyridin]-3′-one]
< 100 | < 100 | < 100 | COc1cc(OC)c(F)c(N2Cc3cnc(NC4CC(F)(F)C4)cc3C3(CC3)C2=O)c1F [Example 43, 2′-(2,6-difluoro-3,5-dimethoxyphenyl)-6′-(3,3-difluorocyclobutylamino)-1′H-spiro[cyclopropane-1,4′-[2,7]naphthyridin]-3′(2′H)-one]
< 100 | < 100 | < 100 | COc1cc(OC)c(F)c(N2Cc3cnc(N)c(-c4cnn(C5CCNCC5)c4)c3N(C)C2=O)c1F [Example 11, 7-amino-3-(2,6-difluoro-3,5-dimethoxyphenyl)-1-methyl-8-(1-piperidin-4-yl-1H-pyrazol-4-yl)-3,4-dihydropyrido[4,3-d]pyrimidin-2(1H)-one]
< 100 | < 100 | < 100 | COc1cc(OC)c(F)c(N2Cc3cnc(NC4CC4)cc3C3(CC3)C2=O)c1F [Example 41, 6′-(cyclopropylamino)-2′-(2,6-difluoro-3,5-dimethoxyphenyl)-1′H-spiro[cyclopropane-1,4′-[2,7]naphthyridin]-3′(2′H)-one]
< 100 | < 100 | < 100 | COc1cc(OC)c(F)c(N2Cc3cnc(NCCN4CCOCC4)cc3C3(CC3)C2=O)c1F [Example 23, 2′-(2,6-difluoro-3,5-dimethoxyphenyl)-6′-[(2-morpholin-4-ylethyl)amino]-1′,2′-dihydro-3′H-spiro[cyclopropane-1,4′-[2,7]naphthyridin]-3′-one]
< 100 | < 100 | < 100 | COc1cc(OC)c(F)c(N2Cc3cnc(N)c(C#N)c3N(CC3CC3)C2=O)c1F [Example 49, 7-amino-1-(cyclopropylmethyl)-3-(2,6-difluoro-3,5-dimethoxyphenyl)-2-oxo-1,2,3,4-tetrahydropyrido[4,3-d]pyrimidine-8-carbonitrile]
< 100 | < 100 | < 100 | COc1cc(OC)c(F)c(N2Cc3cnc(N)c(C#N)c3N(Cc3cnn(C)c3)C2=O)c1F [Example 51, 7-amino-3-(2,6-difluoro-3,5-dimethoxyphenyl)-1-[(1-methyl-1H-pyrazol-4-yl)methyl]-2-oxo-1,2,3,4-tetrahydropyrido[4,3-d]pyrimidine-8-carbonitrile]
< 100 | < 100 | < 100 | COc1cc(OC)c(F)c(N2Cc3cnc(NC[C@H](C)O)cc3C3(CC3)C2=O)c1F [Example 27, (S)-2′-(2,6-difluoro-3,5-dimethoxyphenyl)-6′-(2-hydroxypropylamino)-1′H-spiro[cyclopropane-1,4′-[2,7]naphthyridin]-3′(2′H)-one]
< 100 | < 100 | < 100 | COc1cc(OC)c(F)c(N2Cc3cnc(N)c(-c4cnn(C)c4)c3N(C)C2=O)c1F [Example 8, 7-amino-3-(2,6-difluoro-3,5-dimethoxyphenyl)-1-methyl-8-(1-methyl-1H-pyrazol-4-yl)-3,4-dihydropyrido[4,3-d]pyrimidin-2(1H)-one]
< 100 | < 100 | < 100 | COc1cc(OC)c(F)c(N2Cc3cnc(N)c(-c4ccc(F)cc4)c3N(C)C2=O)c1F [Example 15, 7-amino-3-(2,6-difluoro-3,5-dimethoxyphenyl)-8-(4-fluorophenyl)-1-methyl-3,4-dihydro-pyrido[4,3-d]pyrimidin-2(1H)-one]
< 100 | < 100 | < 100 | COc1cc(OC)c(F)c(N2Cc3cnc(NCc4ccccn4)cc3C3(CC3)C2=O)c1F [Example 28, 2′-(2,6-difluoro-3,5-dimethoxyphenyl)-6′-(pyridin-2-ylmethylamino)-1′H-spiro[cyclopropane-1,4′-[2,7]naphthyridin]-3′(2′H)-one]
< 100 | < 100 | < 100 | CCc1c(N)ncc2c1N(C)C(=O)N(c1c(F)c(OC)cc(OC)c1F)C2 [Example 2, 7-amino-3-(2,6-difluoro-3,5-dimethoxyphenyl)-8-ethyl-1-methyl-3,4-dihydropyrido[4,3-d]pyrimidin-2(1H)-one]
< 100 | < 100 | < 100 | COc1cc(OC)c(F)c(N2Cc3cnc(N)c(-c4cccnc4)c3N(C)C2=O)c1F [Example 16, 7-amino-3-(2,6-difluoro-3,5-dimethoxyphenyl)-1-methyl-8-pyridin-3-yl-3,4-dihydropyrido[4,3-d]pyrimidin-2(1H)-one]
< 100 | < 100 | < 100 | COc1cc(OC)c(F)c(N2Cc3cnc(Nc4cccnc4)cc3C3(CC3)C2=O)c1F [Example 32, 2′-(2,6-difluoro-3,5-dimethoxyphenyl)-6′-(pyridin-3-ylamino)-1′H-spiro[cyclopropane-1,4′-[2,7]naphthyridin]-3′(2′H)-one]
< 100 | < 100 | < 100 | COc1cc(OC)c(F)c(N2Cc3cnc(N)c(-c4ccncc4)c3N(C)C2=O)c1F [Example 17, 7-amino-3-(2,6-difluoro-3,5-dimethoxyphenyl)-1-methyl-8-pyridin-4-yl-3,4-dihydropyrido[4,3-d]pyrimidin-2(1H)-one]
< 100 | < 100 | < 100 | COc1cc(OC)c(F)c(N2Cc3cnc(N)c(Oc4ccccc4)c3N(C)C2=O)c1F [Example 7, 7-amino-3-(2,6-difluoro-3,5-dimethoxyphenyl)-1-methyl-8-phenoxy-3,4-dihydropyrido[4,3-d]pyrimidin-2(1H)-one]
< 100 | < 100 | < 100 | CCOc1c(N)ncc2c1N(C)C(=O)N(c1c(F)c(OC)cc(OC)c1F)C2 [Example 4, 7-amino-3-(2,6-difluoro-3,5-dimethoxyphenyl)-8-ethoxy-1-methyl-3,4-dihydropyrido[4,3-d]pyrimidin-2(1H)-one]
< 100 | < 100 | < 100 | COC(=O)Nc1ncc2c(c1C)N(C)C(=O)N(c1c(F)c(OC)cc(OC)c1F)C2 [Example 48, methyl [3-(2,6-difluoro-3,5-dimethoxyphenyl)-1,8-dimethyl-2-oxo-1,2,3,4-tetrahydropyrido [4,3-d]pyrimidin-7-yl]carbamate]
